{
  "source": "paper PMC5218480",
  "about": "(PLoS ONE, 2017)",
  "test_system": "MV-4-11 cells",
  "experiment": "Gene expression microarray analysis (Affymetrix PrimeView) and GSEA",
  "format": "cell-based, human",
  "set-up": "RFU PODN (11730768_x_at) / Fold change /veh PODN (11730768_x_at) / RFU LINC00158 (11744669_a_at) / Fold change /veh LINC00158 (11744669_a_at) / RFU DUSP10 (11751237_a_at) / Fold change /veh DUSP10 (11751237_a_at) / RFU ID3 (11757404_x_at) / Fold change /veh ID3 (11757404_x_at) / RFU PLEKHG5 (11737974_s_at) / Fold change /veh PLEKHG5 (11737974_s_at) / RFU LRRC4B (11730491_at) / Fold change /veh LRRC4B (11730491_at) / RFU GIMAP4 (11747438_a_at) / Fold change /veh GIMAP4 (11747438_a_at) / RFU KRT8 (11758183_x_at) / Fold change /veh KRT8 (11758183_x_at) / RFU CNN1 (11734310_a_at) / Fold change /veh CNN1 (11734310_a_at) / RFU VPS37D (11726825_at) / Fold change /veh VPS37D (11726825_at) / RFU C10orf10 (11716522_x_at) / Fold change /veh C10orf10 (11716522_x_at) / RFU KIR2DL2 /// KIR2DL4 /// KIR2DL5A /// KIR2DL5B /// KIR2DS1 /// KIR2DS2 /// KIR2DS3 /// KIR2DS4 /// KIR3DL3 /// KIR3DL3 /// KIR3DS1 (11738374_at) / Fold change /veh KIR2DL2 /// KIR2DL4 /// KIR2DL5A /// KIR2DL5B /// KIR2DS1 /// KIR2DS2 /// KIR2DS3 /// KIR2DS4 /// KIR3DL3 /// KIR3DL3 /// KIR3DS1 (11738374_at) / RFU C1QL1 (11718748_at) / Fold change /veh C1QL1 (11718748_at) / RFU TMPRSS4 (11747572_a_at) / Fold change /veh TMPRSS4 (11747572_a_at) / RFU HAMP (11756126_x_at) / Fold change /veh HAMP (11756126_x_at) / RFU RNFT2 (11725882_a_at) / Fold change /veh RNFT2 (11725882_a_at) / RFU NR4A2 (11747474_a_at) / Fold change /veh NR4A2 (11747474_a_at) / RFU ABCC12 (11746883_a_at) / Fold change /veh ABCC12 (11746883_a_at) / RFU TMEM136 (11760407_x_at) / Fold change /veh TMEM136 (11760407_x_at) / RFU CLDN22 /// WWC2 (11732394_at) / Fold change /veh CLDN22 /// WWC2 (11732394_at) / RFU HLA-DPB1 (11760878_x_at) / Fold change /veh HLA-DPB1 (11760878_x_at) / RFU SPINT1 (11716480_a_at) / Fold change /veh SPINT1 (11716480_a_at) / RFU GAP43 (11754022_s_at) / Fold change /veh GAP43 (11754022_s_at) / RFU A4GNT (11735810_at) / Fold change /veh A4GNT (11735810_at) / RFU PRB3 (11715151_x_at) / Fold change /veh PRB3 (11715151_x_at) / RFU TUBB4B (11761932_at) / Fold change /veh TUBB4B (11761932_at) / RFU CAPN14 (11732068_a_at) / Fold change /veh CAPN14 (11732068_a_at) / RFU TMCC2 (11721928_a_at) / Fold change /veh TMCC2 (11721928_a_at) / RFU IRGQ (11745062_a_at) / Fold change /veh IRGQ (11745062_a_at) / RFU FAM174B (11720279_a_at) / Fold change /veh FAM174B (11720279_a_at) / RFU TMPRSS4 (11748680_a_at) / Fold change /veh TMPRSS4 (11748680_a_at) / RFU FAM212B (11763350_a_at) / Fold change /veh FAM212B (11763350_a_at) / RFU PLEKHG5 (11743358_a_at) / Fold change /veh PLEKHG5 (11743358_a_at) / RFU ZSCAN30 (11745921_a_at) / Fold change /veh ZSCAN30 (11745921_a_at) / RFU CMKLR1 (11741424_a_at) / Fold change /veh CMKLR1 (11741424_a_at) / RFU LOC101060620 /// MAPK8IP1 (11723275_at) / Fold change /veh LOC101060620 /// MAPK8IP1 (11723275_at) / RFU SPTSSB (11747773_x_at) / Fold change /veh SPTSSB (11747773_x_at) / RFU PRSS12 (11739890_at) / Fold change /veh PRSS12 (11739890_at) / RFU BIN1 (11741810_x_at) / Fold change /veh BIN1 (11741810_x_at) / RFU WNT11 (11732464_a_at) / Fold change /veh WNT11 (11732464_a_at) / RFU C10orf10 (11716521_a_at) / Fold change /veh C10orf10 (11716521_a_at) / RFU C5orf56 (11738089_at) / Fold change /veh C5orf56 (11738089_at) / RFU CYB561 (11721691_x_at) / Fold change /veh CYB561 (11721691_x_at) / RFU ANKRD19P (11752326_a_at) / Fold change /veh ANKRD19P (11752326_a_at) / RFU OR2T12 /// OR2T33 /// OR2T8 (11738714_s_at) / Fold change /veh OR2T12 /// OR2T33 /// OR2T8 (11738714_s_at) / RFU VCAN (11748164_a_at) / Fold change /veh VCAN (11748164_a_at) / RFU JSRP1 (11732532_at) / Fold change /veh JSRP1 (11732532_at) / RFU KRTAP10-11 (11738290_x_at) / Fold change /veh KRTAP10-11 (11738290_x_at) / RFU MYO3A (11730013_a_at) / Fold change /veh MYO3A (11730013_a_at) / RFU EBF3 (11725865_a_at) / Fold change /veh EBF3 (11725865_a_at) / RFU CAMK2N1 (11719241_x_at) / Fold change /veh CAMK2N1 (11719241_x_at) / RFU C5orf56 (11738088_a_at) / Fold change /veh C5orf56 (11738088_a_at) / RFU OLFML3 (11715873_a_at) / Fold change /veh OLFML3 (11715873_a_at) / RFU LOC100653217 /// NTM (11731650_a_at) / Fold change /veh LOC100653217 /// NTM (11731650_a_at) / RFU MAPK11 (11762145_a_at) / Fold change /veh MAPK11 (11762145_a_at) / RFU FIZ1 (11724087_x_at) / Fold change /veh FIZ1 (11724087_x_at) / RFU OASL (11726364_x_at) / Fold change /veh OASL (11726364_x_at) / RFU SOX15 (11748057_x_at) / Fold change /veh SOX15 (11748057_x_at) / RFU CD79A (11719716_a_at) / Fold change /veh CD79A (11719716_a_at) / RFU HIST1H1D (11736915_at) / Fold change /veh HIST1H1D (11736915_at) / RFU CASKIN2 (11723855_a_at) / Fold change /veh CASKIN2 (11723855_a_at) / RFU LOC730098 (11760151_x_at) / Fold change /veh LOC730098 (11760151_x_at) / RFU OR4N2 (11742367_at) / Fold change /veh OR4N2 (11742367_at) / RFU PRRT2 (11749266_a_at) / Fold change /veh PRRT2 (11749266_a_at) / RFU SNX32 (11753110_a_at) / Fold change /veh SNX32 (11753110_a_at) / RFU CDHR5 (11726645_a_at) / Fold change /veh CDHR5 (11726645_a_at) / RFU RCAN1 (11760418_a_at) / Fold change /veh RCAN1 (11760418_a_at) / RFU FAM167A (11723789_a_at) / Fold change /veh FAM167A (11723789_a_at) / RFU FAM26E (11764081_at) / Fold change /veh FAM26E (11764081_at) / RFU ISYNA1 (11749810_s_at) / Fold change /veh ISYNA1 (11749810_s_at) / RFU ACY1 (11761880_at) / Fold change /veh ACY1 (11761880_at) / RFU 11764098_at / Fold change /veh 11764098_at / RFU SAMD14 (11745864_x_at) / Fold change /veh SAMD14 (11745864_x_at) / RFU NPB (11741838_a_at) / Fold change /veh NPB (11741838_a_at) / RFU TMPRSS6 (11731388_a_at) / Fold change /veh TMPRSS6 (11731388_a_at) / RFU KRTAP10-2 (11738614_at) / Fold change /veh KRTAP10-2 (11738614_at) / RFU ARHGAP8 /// PRR5-ARHGAP8 (11727945_x_at) / Fold change /veh ARHGAP8 /// PRR5-ARHGAP8 (11727945_x_at) / RFU KRTAP5-7 /// NADSYN1 (11734609_at) / Fold change /veh KRTAP5-7 /// NADSYN1 (11734609_at) / RFU RASL12 (11751679_a_at) / Fold change /veh RASL12 (11751679_a_at) / RFU CDKN2B (11736163_a_at) / Fold change /veh CDKN2B (11736163_a_at) / RFU PRF1 (11729649_at) / Fold change /veh PRF1 (11729649_at) / RFU, ZNF638 /// ZNF638-IT1 / Fold change vs veh, ZNF638 /// ZNF638-IT1 / RFU, PANK3 / Fold change vs veh, PANK3 / RFU, SH3YL1 / Fold change vs veh, SH3YL1 / RFU, ZEB2 / Fold change vs veh, ZEB2 / RFU, NRIP1 / Fold change vs veh, NRIP1 / RFU, PTTG1IP / Fold change vs veh, PTTG1IP / RFU, CAPN2 / Fold change vs veh, CAPN2 / RFU, MED14 / Fold change vs veh, MED14 / RFU, SNORA58 / Fold change vs veh, SNORA58 / RFU, C1orf63 / Fold change vs veh, C1orf63 / RFU, LRRFIP1 / Fold change vs veh, LRRFIP1 / RFU, NDUFAF7 / Fold change vs veh, NDUFAF7 / RFU, SLC12A2 / Fold change vs veh, SLC12A2 / RFU, IBTK / Fold change vs veh, IBTK / RFU, ESF1 / Fold change vs veh, ESF1 / Fold change vs veh, TMEM50B / RFU, TAOK1 / Fold change vs veh, TAOK1 / RFU, ACBD3 / Fold change vs veh, ACBD3 / RFU, TMA16 / Fold change vs veh, TMA16 / RFU, RWDD3 / Fold change vs veh, RWDD3 / RFU, BCAT1 / Fold change vs veh, BCAT1 / RFU, EDEM3 / Fold change vs veh, EDEM3 / RFU, TMEM33 / Fold change vs veh, TMEM33 / RFU, WDR75 / Fold change vs veh, WDR75 / RFU, AHCTF1 / Fold change vs veh, AHCTF1 / RFU, TFRC / Fold change vs veh, TFRC / RFU, ZDHHC17 / Fold change vs veh, ZDHHC17 / RFU, NOM1 / Fold change vs veh, NOM1 / RFU, ARL8B / Fold change vs veh, ARL8B / RFU, ZBTB11 / Fold change vs veh, ZBTB11 / RFU, TAMM41 / Fold change vs veh, TAMM41 / RFU, KIAA1704 /// LOC100996395 / Fold change vs veh, KIAA1704 /// LOC100996395 / RFU, ING1 / Fold change vs veh, ING1 / RFU, TRMT61B / Fold change vs veh, TRMT61B / RFU, FUBP3 / Fold change vs veh, FUBP3 / RFU, TP53 / Fold change vs veh, TP53 / RFU, TNKS2 / Fold change vs veh, TNKS2 / RFU, ZFP14 / Fold change vs veh, ZFP14 / RFU, ACTR2 / Fold change vs veh, ACTR2 / RFU, PPP3R1 / Fold change vs veh, PPP3R1 / RFU, PIK3R1 / Fold change vs veh, PIK3R1 / RFU, HNRNPA1 / Fold change vs veh, HNRNPA1 / RFU, RNF170 / Fold change vs veh, RNF170 / RFU, ZNF28 / Fold change vs veh, ZNF28 / RFU, RNGTT / Fold change vs veh, RNGTT / RFU, OGT / Fold change vs veh, OGT / RFU, BRD1 / Fold change vs veh, BRD1 / RFU, MARS / Fold change vs veh, MARS / RFU, ZNF655 / Fold change vs veh, ZNF655 / RFU, FAHD1 / Fold change vs veh, FAHD1 / RFU, BDP1 / Fold change vs veh, BDP1 / RFU, LRRCC1 / Fold change vs veh, LRRCC1 / RFU, ARID1A / Fold change vs veh, ARID1A / RFU, ZNF146 / Fold change vs veh, ZNF146 / RFU, ZNF330 / Fold change vs veh, ZNF330 / RFU, GPN3 / Fold change vs veh, GPN3 / RFU, C9orf123 / Fold change vs veh, C9orf123 / RFU, N4BP2L2 / Fold change vs veh, N4BP2L2 / RFU, ARFIP1 / Fold change vs veh, ARFIP1 / RFU, FAM179B / Fold change vs veh, FAM179B / RFU, BCL10 / Fold change vs veh, BCL10 / RFU, UHRF1BP1L / Fold change vs veh, UHRF1BP1L / RFU, BET1 / Fold change vs veh, BET1 / RFU, CNOT2 / Fold change vs veh, CNOT2 / RFU, ZNF268 / Fold change vs veh, ZNF268 / Fold change vs veh, ZNF507 / RFU, DGCR2 / Fold change vs veh, DGCR2 / RFU, WDSUB1 / Fold change vs veh, WDSUB1 / Fold change vs veh, HSP90B1 /// MIR3652 / RFU, ADSS / Fold change vs veh, ADSS / RFU, GK / Fold change vs veh, GK / RFU, ZNF148 / Fold change vs veh, ZNF148 / RFU, TAF9 / Fold change vs veh, TAF9 / RFU, SLC1A5 / Fold change vs veh, SLC1A5 / RFU, SLMO2 / Fold change vs veh, SLMO2 / RFU, ABCC4 / Fold change vs veh, ABCC4 / RFU, LOC101060439 /// RAP1B / Fold change vs veh, LOC101060439 /// RAP1B / RFU, RFX7 / Fold change vs veh, RFX7 / RFU, GTPBP10 / Fold change vs veh, GTPBP10 / RFU, CNEP1R1 / Fold change vs veh, CNEP1R1 / RFU, BIVM-ERCC5 /// ERCC5 / Fold change vs veh, BIVM-ERCC5 /// ERCC5 / RFU, ILF3 / Fold change vs veh, ILF3 / RFU 11762660_at / Fold change /veh 11762660_at / RFU VCAN (11757783_s_at) / Fold change /veh VCAN (11757783_s_at) / RFU DDX43 (11728927_at) / Fold change /veh DDX43 (11728927_at) / RFU KRT8 (11758188_x_at) / Fold change /veh KRT8 (11758188_x_at) / RFU NKD1 (11759106_at) / Fold change /veh NKD1 (11759106_at) / RFU SRD5A1 (11742802_a_at) / Fold change /veh SRD5A1 (11742802_a_at) / RFU TPSAB1 /// TPSB2 (11721975_s_at) / Fold change /veh TPSAB1 /// TPSB2 (11721975_s_at) / RFU GSTM3 (11746129_a_at) / Fold change /veh GSTM3 (11746129_a_at) / RFU IL23R (11737362_x_at) / Fold change /veh IL23R (11737362_x_at) / RFU TMEM51 (11727254_a_at) / Fold change /veh TMEM51 (11727254_a_at) / RFU PIWIL2 (11732686_x_at) / Fold change /veh PIWIL2 (11732686_x_at) / RFU ORM1 (11744905_x_at) / Fold change /veh ORM1 (11744905_x_at) / RFU CCDC152 (11743942_at) / Fold change /veh CCDC152 (11743942_at) / RFU ECM1 (11717891_a_at) / Fold change /veh ECM1 (11717891_a_at) / RFU IL23R (11748794_a_at) / Fold change /veh IL23R (11748794_a_at) / RFU TNFAIP8L3 (11732012_x_at) / Fold change /veh TNFAIP8L3 (11732012_x_at) / RFU MBOAT4 (11741988_at) / Fold change /veh MBOAT4 (11741988_at) / RFU 11764193_at / Fold change /veh 11764193_at / RFU TMEM53 (11763286_at) / Fold change /veh TMEM53 (11763286_at) / RFU MAGEB2 (11727129_at) / Fold change /veh MAGEB2 (11727129_at) / RFU TMEM200A (11744735_a_at) / Fold change /veh TMEM200A (11744735_a_at) / RFU CCDC152 (11751479_a_at) / Fold change /veh CCDC152 (11751479_a_at) / RFU FAM211A (11726209_a_at) / Fold change /veh FAM211A (11726209_a_at) / RFU RGS16 (11746705_a_at) / Fold change /veh RGS16 (11746705_a_at) / RFU VCAN (11755009_s_at) / Fold change /veh VCAN (11755009_s_at) / RFU RHOB (11743442_s_at) / Fold change /veh RHOB (11743442_s_at) / RFU RGS16 (11720943_a_at) / Fold change /veh RGS16 (11720943_a_at) / RFU RGS16 (11720944_at) / Fold change /veh RGS16 (11720944_at) / RFU, VPS4B / Fold change vs veh, VPS4B / RFU, CREB1 / Fold change vs veh, CREB1 / RFU, DNAJC13 / Fold change vs veh, DNAJC13 / RFU, GNAQ / Fold change vs veh, GNAQ / RFU, CDK5R1 / Fold change vs veh, CDK5R1 / RFU, ZRANB3 / Fold change vs veh, ZRANB3 / RFU, CUL4A / Fold change vs veh, CUL4A / RFU, CCNY / Fold change vs veh, CCNY / RFU, UFL1 / Fold change vs veh, UFL1 / RFU, COG3 / Fold change vs veh, COG3 / RFU, DIAPH2 / Fold change vs veh, DIAPH2 / RFU, SKA2 / Fold change vs veh, SKA2 / RFU, AFF3 / Fold change vs veh, AFF3 / RFU, LMF1 / Fold change vs veh, LMF1 / RFU, IPO11 / Fold change vs veh, IPO11 / RFU, DFFB / Fold change vs veh, DFFB / RFU, FOXP1 / Fold change vs veh, FOXP1 / RFU, CARD8 / Fold change vs veh, CARD8 / RFU, STRN3 / Fold change vs veh, STRN3 / RFU, ADK / Fold change vs veh, ADK / RFU, RASSF2 / Fold change vs veh, RASSF2 / RFU, WIPF1 / Fold change vs veh, WIPF1 / RFU, LARP1B / Fold change vs veh, LARP1B / RFU, RASA1 / Fold change vs veh, RASA1 / RFU, RB1 / Fold change vs veh, RB1 / RFU, PPFIA1 / Fold change vs veh, PPFIA1 / RFU, MAT2A / Fold change vs veh, MAT2A / RFU, CCT5 / Fold change vs veh, CCT5 / RFU, WDR92 / Fold change vs veh, WDR92 / RFU, CUX1 / Fold change vs veh, CUX1 / RFU, TTC7A / Fold change vs veh, TTC7A / RFU, TMEM135 / Fold change vs veh, TMEM135 / RFU, DEPTOR / Fold change vs veh, DEPTOR / RFU, CPM / Fold change vs veh, CPM / RFU, DNAJB6 / Fold change vs veh, DNAJB6 / RFU, CACNA2D3 / Fold change vs veh, CACNA2D3 / RFU, DTX4 / Fold change vs veh, DTX4 / RFU, TFCP2 / Fold change vs veh, TFCP2 / RFU, GMCL1 /// GMCL1P1 / Fold change vs veh, GMCL1 /// GMCL1P1 / RFU, AEBP2 / Fold change vs veh, AEBP2 / RFU, SNHG1 /// SNORD22 /// SNORD25 /// SNORD26 /// SNORD27 /// SNORD28 /// SNORD29 /// SNORD31 / Fold change vs veh, SNHG1 /// SNORD22 /// SNORD25 /// SNORD26 /// SNORD27 /// SNORD28 /// SNORD29 /// SNORD31 / Fold change (Aza/veh), C12orf56 (ProbeSet 11735607_a_at) / Fold change (ACY-1035/veh), C12orf56 (ProbeSet 11735607_a_at) / Fold change (Aza/veh), FGFR1OP (ProbeSet 11751329_s_at) / Fold change (ACY-1035/veh), FGFR1OP (ProbeSet 11751329_s_at) / Fold change (Aza/veh), VPS36 (ProbeSet 11739960_a_at) / Fold change (ACY-1035/veh), VPS36 (ProbeSet 11739960_a_at) / RFU SYPL1 (11715823_x_at) / Fold change /veh SYPL1 (11715823_x_at) / RFU IGFBP7 (11715501_s_at) / Fold change /veh IGFBP7 (11715501_s_at) / RFU REEP3 (11722064_at) / Fold change /veh REEP3 (11722064_at) / RFU IGLL1 (11728026_x_at) / Fold change /veh IGLL1 (11728026_x_at): dose or concentration left out as unconfirmed",
  "conditions": "ProbeSet 11715478_a_at; LIST B",
  "data": [
    {"smiles": "Nc1ccc(-c2cccs2)cc1NC(=O)c1ccc2c(c1)cc(C1CC1)n2CCN1CCOCC1", "note": "[ACY-1035]", "values": [
      {"measurement": "RFU, TFRC", "value": 135.12, "unit": "RFU"}
    ]}
  ]
}
